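Growth conditions: 96-well plates. Treatment: test compound, 48 hours, 5 concentrations. Analysis: linear interpolation between bracketing concentrations; unreached endpoints set to highest concentration. The concentration for 50% growth inhibition is given as GI50.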 Calls of active or inactive are those of the source. No stated cut-off is given here; in the data, active = GI50 up to about 1.1 µM and inactive = higher.
Columns and labels:
Assay in all cases: DTP human tumour cell line panel, 48 h
NCI-H23 = system: NCI-H23
DU-145 = system: DU-145
CCRF-CEM = system: CCRF-CEM
ACHN = system: ACHN
MOLT-4 = system: MOLT-4
MDA-MB-231 = system: MDA-MB-231
NCI-H460 = system: NCI-H460
LOX IMVI = system: LOX IMVI
MCF7 = system: MCF7
NCI-H226 = system: NCI-H226
SNB-75 = system: SNB-75
OVCAR-8 = system: OVCAR-8
HCT-116 = system: HCT-116
SF-268 = system: SF-268
Hs-578T = system: Hs-578T
SNB-19 = system: SNB-19
HCT-15 = system: HCT-15
HT-29 = system: HT-29
SF-539 = system: SF-539
UACC-62 = system: UACC-62

SMILES | GI50 (NCI-H23) | GI50 (DU-145) | GI50 (CCRF-CEM) | GI50 (ACHN) | GI50 (MOLT-4) | GI50 (MDA-MB-231) | GI50 (NCI-H460) | GI50 (LOX IMVI) | GI50 (MCF7) | GI50 (NCI-H226) | GI50 (SNB-75) | GI50 (OVCAR-8) | GI50 (HCT-116) | GI50 (SF-268) | GI50 (Hs-578T) | GI50 (SNB-19) | GI50 (HCT-15) | GI50 (HT-29) | GI50 (SF-539) | GI50 (UACC-62)
CC(=O)O[C@H]1CC2C(C3CCC(C(C)CCC(=O)O)[C@]31C)[C@H](OC(C)=O)C[C@@H]1CC3(CC[C@]21C)OOC1(CC[C@]2(C)C4C[C@H](OC(C)=O)[C@]5(C)C(C(C)CCC(=O)O)CCC5C4[C@H](OC(C)=O)C[C@@H]2C1)OO3 (stereo partly specified) | 1.64 µM (inactive) | 1.2 µM (inactive) | 2.59 µM (inactive) | 1.71 µM (inactive) | 2.03 µM (inactive) | 2.01 µM (inactive) | 1.48 µM (inactive) | 1.63 µM (inactive) | 2.7 µM (inactive) | 2.04 µM (inactive) | 1.3 µM (inactive) | 1.66 µM (inactive) | 1.75 µM (inactive) | 1.38 µM (inactive) | 1.5 µM (inactive) | 2.86 µM (inactive) | 2.22 µM | 2.57 µM (inactive) |  | 
CCCCCCNCCCNc1c2cc(OC)ccc2nc2cccc([N+](=O)[O-])c12 | 0.124 µM (active) | 0.0413 µM (active) | 0.0403 µM (active) | 0.14 µM (active) | 0.112 µM (active) | 0.055 µM (active) | 0.0336 µM (active) | 0.134 µM (active) | 0.212 µM (active) | 0.257 µM (active) | 0.298 µM (active) |  | 0.036 µM (active) | 0.0731 µM (active) | 0.299 µM (active) | 0.369 µM (active) | 0.198 µM | 0.0326 µM (active) | 0.29 µM (active) | 0.143 µM (active)
N=C1CCCC1C(=S)SCCC(N)=O (stereo unspecified) | > 100 µM (inactive) | > 100 µM (inactive) | > 100 µM (inactive) | > 100 µM (inactive) | > 100 µM (inactive) | > 100 µM (inactive) | > 100 µM (inactive) |  | > 100 µM (inactive) | > 100 µM (inactive) | 61.4 µM (inactive) | > 100 µM (inactive) | > 100 µM (inactive) | > 100 µM (inactive) | > 100 µM (inactive) | > 100 µM (inactive) | > 100 µM | > 100 µM (inactive) | > 100 µM (inactive) | > 100 µM (inactive)
C=CCn1c(=O)c(C(=O)Nc2nc(C34CC5CC(CC(C5)C3)C4)cs2)c(O)c2ccccc21 | 34.3 µM (inactive) | 47.8 µM (inactive) | 37.3 µM (inactive) | 29.5 µM (inactive) | 27.4 µM (inactive) | 22 µM (inactive) | 32.9 µM (inactive) | 34 µM (inactive) | 50.6 µM (inactive) | 50.7 µM (inactive) | > 100 µM (inactive) | 82.8 µM (inactive) | 30 µM (inactive) | > 10 µM (inactive) | 32.4 µM (inactive) | 53.6 µM (inactive) | 21.5 µM | 19.1 µM (inactive) | 60.8 µM (inactive) | 
S=C(N/N=C\C=N/NC(=S)N1CCCCCC1)N1CCCCCC1 | > 31.1 µM (inactive) | 9.31 µM (inactive) |  | 8.59 µM (inactive) | 7.1 µM (inactive) | > 31.5 µM (inactive) | 3.93 µM (inactive) | 13.5 µM (inactive) | 14.3 µM (inactive) | 28.6 µM (inactive) | 22.5 µM (inactive) | 4.65 µM (inactive) | 7.73 µM (inactive) | 10.5 µM (inactive) | 32.8 µM (inactive) | 34.2 µM (inactive) | 8.02 µM | 7.28 µM (inactive) | 64.9 µM (inactive) | 21.2 µM (inactive)
CC(=O)Oc1cc2oc(=O)cc(C)c2cc1OC(C)=O | 75.2 µM (inactive) | 52.7 µM (inactive) | 16.7 µM (inactive) | 42.2 µM (inactive) | 74.8 µM (inactive) | 58.7 µM (inactive) |  | 40.2 µM (inactive) | 38.8 µM (inactive) | 40.2 µM (inactive) | 48.4 µM (inactive) | 32.2 µM (inactive) | 44 µM (inactive) | 36.6 µM (inactive) | 68.4 µM (inactive) | > 100 µM (inactive) | 38.5 µM | 39.6 µM (inactive) | 31.3 µM (inactive) | 58.2 µM (inactive)
CCOP1(=O)OCC2OC(n3cnc4c(N)ncnc43)C(O)C2O1.c1ccccc1 (stereo unspecified) |  | > 100 µM (inactive) |  | > 100 µM (inactive) | > 100 µM (inactive) | > 100 µM (inactive) | > 100 µM (inactive) | > 100 µM (inactive) | > 100 µM (inactive) | > 100 µM (inactive) | > 100 µM (inactive) | > 100 µM (inactive) | > 100 µM (inactive) | > 100 µM (inactive) | > 100 µM (inactive) | > 100 µM (inactive) | > 100 µM | > 100 µM (inactive) | > 100 µM (inactive) | > 100 µM (inactive)

Source: ChEMBL document CHEMBL1201862, “PubChem BioAssay data set” (2004)
